Counter-ions that a name gives are not always drawn. Like-named read-outs stand apart in the source and are kept apart here.
Key:
bovine adrenal CYP11B = biological target: T1, bovine adrenal CYP11B (Bos taurus, UniProt P15150); assay: Percent inhibition of bovine CYP11B (adrenal mitochondria); settings: corticosterone substrate 200 μM, inhibitor 1 μM; for % Inhibition bovine bCYP11B: bovine adrenal mitochondria, 1 mg/ml protein; for inhibition at 1 µM: read-out: % Inhibition bovine bCYP11B, bovine adrenal mitochondria, 1 mg/ml protein
T1 sequence (P15150 25-503): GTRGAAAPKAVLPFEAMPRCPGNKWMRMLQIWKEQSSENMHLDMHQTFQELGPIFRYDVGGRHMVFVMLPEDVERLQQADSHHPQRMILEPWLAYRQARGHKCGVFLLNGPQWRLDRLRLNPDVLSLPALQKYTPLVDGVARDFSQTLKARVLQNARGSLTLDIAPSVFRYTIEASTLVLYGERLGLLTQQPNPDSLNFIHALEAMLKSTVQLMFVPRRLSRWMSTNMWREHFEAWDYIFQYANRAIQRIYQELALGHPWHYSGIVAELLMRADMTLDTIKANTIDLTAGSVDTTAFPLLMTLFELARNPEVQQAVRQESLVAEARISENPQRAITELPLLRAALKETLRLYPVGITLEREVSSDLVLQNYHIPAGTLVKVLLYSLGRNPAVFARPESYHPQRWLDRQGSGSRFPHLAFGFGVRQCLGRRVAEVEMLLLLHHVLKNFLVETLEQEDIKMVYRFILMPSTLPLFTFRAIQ
Method: Bovine adrenal glands obtained freshly after slaughtering were stored in ice cold Tris-sucrose buffer (0.25 M sucrose, 0.05 M Tris; pH 7.4) until processed. After removing the appending adipose tissue, the adrenal medulla was carefully separated from the adrenal cortex using scissors. The pieces of adrenal cortex were coarsely comminuted with scissors, washed with Tris-sucrose buffer, weighed and finely comminuted in the above buffer (2 ml per g of tissue) with a hand mixer. Thereafter, the tissue was homogenized with an Ultra-Turrax mixer. For separating coarse cell debris and the nuclei, the homogenizate was centrifuged twice for 15 min at 900 g and 4° C. The supernatant was subsequently centrifuged for 35 min at 11,000 g for recovering the mitochondrial fraction. For purifying the mitochondrial fraction, the precipitate was resuspended in Tri-sucrose buffer and again centrifuged at 11,000 g for 35 min. This washing step was performed two times in total. After the last centrifugation, the pellet was resuspended in Tris-sucrose buffer containing 0.001 M EDTA and frozen at −70° C.
The substrate corticosterone was dissolved in methanol and diluted with Tris buffer to a final concentration of 200 μM. The inhibitors were also dissolved in methanol and diluted with buffer to a final concentration of 1 μM. […] Corticosterone (200 μM) was incubated with inhibitor (1 μM) and mitochondrial enzyme (0.5 mg/0.5 ml) with the addition of a regenerating system consisting of NADP^+ (1 mM), glucose-6-phosphate (7 mM) and glucose-6-Phosphate dehydrogenase (1 IU/0.5 ml). Up to 5 inhibitors per test could be incubated in duplicate. […] After preincubation for 5 minutes (30° C.; water bath), the reaction was started by adding mitochondrial suspension. […] The blind values were admixed with 250 μl of HCl before the enzyme was pipetted in. The steroids were separated off by shaking with 1 ml of ethyl acetate (10 min). After centrifugation (15,000 g, 10 min), 900 μl of the organic phase was shaken with 250 μl 1 N NaOH (10 min), and 800 μl of supernatant was again washed with 250 μl of buffer. […] 18-OH-corticosterone (retention time: 10 min) and corticosterone (retention time: 21 min) were separated. The height of the 18-OH-corticosterone peak was used for evaluation. The percent inhibition of the 18-hydroxylation of corticosterone by the inhibitors was based on the mediums of the control incubation, taking the blind values into account.

CYP11B1 in NCI-H295R = biological target: T2, CYP11B1 in NCI-H295R (Homo sapiens, UniProt P15538); assay: cell-based; settings: read-out: NCI-H295R CYP11B1 RSS % inhibition
T2 sequence (P15538 25-503): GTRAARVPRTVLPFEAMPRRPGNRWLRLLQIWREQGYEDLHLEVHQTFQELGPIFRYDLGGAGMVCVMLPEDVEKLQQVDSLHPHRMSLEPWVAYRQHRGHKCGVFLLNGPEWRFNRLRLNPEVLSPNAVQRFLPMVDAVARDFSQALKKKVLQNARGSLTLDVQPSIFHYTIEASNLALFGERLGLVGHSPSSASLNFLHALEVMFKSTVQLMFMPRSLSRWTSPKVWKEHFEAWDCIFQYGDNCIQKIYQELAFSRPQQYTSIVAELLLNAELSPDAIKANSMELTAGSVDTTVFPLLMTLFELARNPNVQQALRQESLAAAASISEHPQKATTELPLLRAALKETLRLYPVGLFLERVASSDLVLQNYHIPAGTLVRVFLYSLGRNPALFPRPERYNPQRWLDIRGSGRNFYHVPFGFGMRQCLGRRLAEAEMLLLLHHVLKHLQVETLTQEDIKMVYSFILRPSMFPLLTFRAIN
Method: (§1) For testing inhibitors, a preincubation for one hour was performed first, followed by starting the enzyme reactions by adding substrate (500 nM).
(§2) A) Seeding: The cell lines were grown and passaged until a confluent cell lawn had formed. By tryptic treatment, the cell material of at least two culture dishes was obtained, and the number of cells determined by means of a CASY TT cell counter (150 μl capillary). […] With the cell material of two confluently grown culture dishes, two 24-well plates could be coated. After 24 hours, the cells had grown on, and after another 24 hours' stimulation phase with a solution containing potassium ions (final concentration: 20 mM KCl), could be employed for the test.
(§3) Of this solution, 5 μl each was added to the samples.
(§4) Then, the 24-well plate was stored in a CO2 incubator at 37° C. and […]. The incubation time was 3 hours when deoxycorticosterone was used as the substrate, 24 Hours for corticosterone, and 48 hours for deoxycortisol.
Test stop: After elapse of the incubation times, the plates were briefly swung, and then the content of the wells was removed quantitatively if possible and inactivated by mixing with 1000 μl of dichloromethane in a 2 ml Eppendorf vessel. After 10 minutes of shaking, it was centrifuged for phase separation, and the […], organic phase was transferred into a 1.5 ml Eppendorf vessel. […]

CYP11B2 in NCI-H295R = biological target: T3, CYP11B2 in NCI-H295R (Homo sapiens, UniProt P19099); assay: NCI-H295R cells, CYP11B2 inhibition (substrates corticosterone B or deoxycorticosterone DOC); assay type: cell-based; settings: for inhibition at 2.5 µM: NCI-H295R
T3 construct: contain 5 steroidogenic CYP450 enzymes, including 17-alpha-hydroxylase, CYP11B1 and CYP11B2; endogenous in cells; host or cells: NCI-H295R
T3 sequence (P19099 25-503): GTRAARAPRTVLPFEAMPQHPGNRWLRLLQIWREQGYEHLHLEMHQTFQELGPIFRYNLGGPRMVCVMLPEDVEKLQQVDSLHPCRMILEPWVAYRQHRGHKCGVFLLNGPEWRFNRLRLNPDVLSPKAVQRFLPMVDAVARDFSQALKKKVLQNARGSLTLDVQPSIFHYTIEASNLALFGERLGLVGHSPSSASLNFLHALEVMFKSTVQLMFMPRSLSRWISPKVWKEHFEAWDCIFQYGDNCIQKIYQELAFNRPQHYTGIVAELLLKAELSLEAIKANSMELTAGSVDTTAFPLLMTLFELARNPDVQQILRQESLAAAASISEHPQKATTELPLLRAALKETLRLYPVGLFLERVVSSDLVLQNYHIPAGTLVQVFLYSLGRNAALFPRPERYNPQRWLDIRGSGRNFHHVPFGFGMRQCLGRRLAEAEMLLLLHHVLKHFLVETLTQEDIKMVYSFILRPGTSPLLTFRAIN
Method: as §1, §2
In the substrate solutions for the examinations on CYP11B2, the corticosterone substrate solution (final concentration in the test: 500 nM) consisted of 38.4 μl of [1,2-^3H(N)]corticosterone (1 mCi/ml, 76.5 Ci/mmol; NEN-Perkin-Elmer) in ethanol, 39.0 μl of unlabeled corticosterone solution (0.5 mM in ethanol) and 122.6 μl of ethanol. Deoxycorticosterone, which was also employed in a final concentration of 500 nM, was composed of 18 μl of [^14C]-labeled deoxycorticosterone (60.0 mCi/mmol; 0.5 nCi/μl) in ethanol in admixture with 54 μl of unlabeled substance (0.5 mM in ethanol) and 228 μl of ethanol.
as §3, §4
Test stop: After elapse of the incubation times, the plates were briefly swung, and then the content of the wells was removed quantitatively if possible and inactivated by mixing with 1000 μl of dichloromethane in a 2 ml Eppendorf vessel. After 10 minutes of shaking, it was centrifuged for phase separation, and the […], organic phase was transferred into a 1.5 ml Eppendorf vessel.
After evaporating the solvent over night under a hood, the residue was taken up in 10 μl of chloroform and applied to the center of the concentration zone of an HPTLC plate.
For detecting the steroids on the TLC, the radiation-exposed film was scanned in the phosphoimager FLA 3000 after two days.
For the substrate corticosterone, equation 5 was valid: […]

Compound | % Inhibition bovine bCYP11B (bovine adrenal CYP11B) [%] | inhibition at 1 µM (bovine adrenal CYP11B) [%] | further results
5-[(E)-(6-Chloro-3,4-dihydronaphth-1(2H)-ylidene)methyl]-1H-imidazolium chloride [Compound 46a] | 66 |  | 
5-[(Z)-3,4-Dihydronaphth-1(2H)-ylidenemethyl]-1H-imidazolium oxalate [Compound 41b] | 95 |  | 
5-[(Z)-(5-Bromo-2,3-dihydro-1H-indene-1-ylidene)methyl]-1H-imidazolium oxalate [Compound 49b] | 88 |  | 
5-[(Z)-(5-Chloro-2,3-dihydro-1H-indene-1-ylidene)methyl]-1H-imidazolium oxalate [Compound 48b] | 87 |  | 
Fc1ccc2c(c1)CC/C2=C/c1cccnc1 [Compound 5b, 3-[(Z)-(5-Fluoro-2,3-dihydro-1H-indane-1-ylidene)methyl]pyridine Hydrochloride] |  |  | inhibition at 2.5 µM (CYP11B1 in NCI-H295R): 73.1%; IC50 (CYP11B2 in NCI-H295R; K+ stimulation 20 mM, substrate [3H]-corticosterone (B) 500 nM, incubation 24 h, read-out: NCI-H295R CYP11B2 B [IC50]): 17 µM; inhibition at 2.5 µM (CYP11B2 in NCI-H295R; read-out: NCI-H295R CYP11B2 B % inhibition): 6.9%; inhibition at 2.5 µM (CYP11B2 in NCI-H295R; read-out: NCI-H295R CYP11B2 DOC % inhibition): 89.2%; IC50 (CYP11B2 in NCI-H295R; substrate [14C]deoxycorticosterone (DOC) 500 nM, incubation 3 h, read-out: NCI-H295R CYP11B2 DOC [IC50]): 0.156 µM
C(=C1/CCCc2ccccc21)/c1cnc[nH]1 [Compound 41a, 5-[(E)-3,4-Dihydronaphth-1(2H)-ylidenemethyl]-1H-imidazole] |  | 40 | 
C(=C1/CCc2ccccc21)/c1cnc[nH]1 [Compound 42a, 5-[(E)-2,3-Dihydro-1H-indane-1-ylidenemethyl]-1H-imidazole] |  | 62 | 
C(=C1\CCc2ccccc21)/c1cnc[nH]1 [Compound 42b, 5-[(Z)-2,3-Dihydro-1H-ind-1-ylidenemethyl]-1H-imidazolium oxalate] | 94 | ~90 | 
Cl.Clc1ccc2c(c1)CC/C2=C\c1cnc[nH]1 [Compound 48a, 5-[(E)-(5-Chloro-2,3-dihydro-1H-indene-1-ylidene)methyl]-1H-imidazolium chloride] |  | 45 | 
Brc1ccc2c(c1)CC/C2=C\c1cnc[nH]1.Cl [Compound 49a, 5-[(E)-(5-Bromo-2,3-dihydro-1H-indene-1-ylidene)methyl]-1H-imidazolium chloride] |  | 63 | 
